Test results published in patent publication EP0092830A2, “Cephalosporin derivatives, process for their preparation, pharmaceutical compositions containing them and their application” (CIBA-GEIGY AG, priority 1982, dated 1983).

Experiments:
[1] = test system: Staphylococcus aureus 10 B; test: chemotherapeutic efficacy in vivo against systemic infection in mice (method of Zak et al.); settings: systemic infection in female SPF, MF2 mice; for ED50 Staphylococcus aureus 10 B: s.c.; for ED50: Staphylococcus aureus, 10B
From the text: (§1) B. Die chemotherapeutische Wirksamkeit in vivo gegen systemische Infektionen in weiblichen SPF, MF2 Mäusen wurde nach der Methode von Zak, 0. et al., 1979, Drugs Exptl. Clin. Res. 5, 45-59, ermittelt. Die gefundenen EDS50-Werte in Milligramm Substanz pro Kilogramm Maus (mg/kg) für eine Anzahl von Mikroorganismen werden für die oral (p.o.) oder subcutan (s.c.) applizierten, Testverbindungen in der Tabelle 2 angegeben.

Escherichia coli 205 = test: as above; settings: systemic infection in female SPF, MF2 mice
From the text: as §1

[2] = Escherichia coli, 205, po, p.o.
[3] = Escherichia coli, 205, sc, s.c.

Q: Which results are given for `CN(C)CCn1nnnc1SCC1=C(C(=O)O)N2C(=O)[C@@H](NC(=O)C(NS(=O)(=O)CCN)c3csc(N)n3)[C@H]2SC1` (stereo partly drawn) [Beispiel 20, 3-[1-(2-Dimethylaminoäthyl)-1H-tetrazol-5-ylthiomethyl]-7ß-[(2R,S)-2-(2-aminoäthansulfonylamino)-2-(2-aminothiazol-4-yl)-acetamido]-3-cephem-4-carbonsäure]?
A: ED50 Staphylococcus aureus 10 B [1]: >30 mg/kg; ED50 Escherichia coli 205 (Escherichia coli 205; p.o.): 8 mg/kg; ED50 Escherichia coli 205 (Escherichia coli 205; s.c.): 0,8 mg/kg

Q: Which “ED50 Staphylococcus aureus 10 B” value [1] does the source give for `NCCS(=O)(=O)NC(C(=O)N[C@@H]1C(=O)N2C(C(=O)[O-])=C(CSc3nnnn3CC(=O)O)CS[C@H]12)c1csc(N)n1.[Na+]` (stereo partly drawn) [Testverbindung 5, 3-(1-Carboxymethyl-1H-tetrazol-5-ylthiomethyl)-7ß-[(2R,S)-2-(2-aminoäthansulfonylamino)-2-(2-aminothiazol-4-yl)-acetamido]-3-cephem-4-carbonsäure-natriumsalz] here?
A: 78 mg/kg

Q: And the “ED50 Escherichia coli 205” value (Escherichia coli 205; p.o.)?
A: 2 mg/kg

Q: What about the “ED50 Escherichia coli 205” value (Escherichia coli 205; s.c.) of the same compound?
A: 0,45 mg/kg

Q: With `NCCS(=O)(=O)NC(C(=O)N[C@@H]1C(=O)N2C(C(=O)[O-])=C(CSc3nnnn3CS(=O)(=O)O)CS[C@H]12)c1csc(N)n1.[Na+]` (stereo partly drawn) [Testverbindung 6, 3-(1-Sulfomethyl-1H-tetrazol-5-ylthiomethyl)-7ß-[(2R,S)-2-(2-aminoäthansulfonylamino)-2-(2-aminothiazol-4-yl)-acetamido]-3-cephem-4-carbonsäurematriumsalz] as the compound, how does the “ED50 Staphylococcus aureus 10 B” value [1] read?
A: >30 mg/kg

Q: And the “ED50 Escherichia coli 205” value (Escherichia coli 205; p.o.)?
A: 10 mg/kg

Q: What about the “ED50 Escherichia coli 205” value (Escherichia coli 205; s.c.) of the same compound?
A: 6,0 mg/kg

Q: For `CS(=O)(=O)NC(C(=O)N[C@@H]1C(=O)N2C(C(=O)[O-])=C(C[n+]3ccc(C(N)=O)cc3)CS[C@H]12)c1csc(N)n1` (stereo partly drawn) [Testverbindung 9, 3-(4-Carbamoylpyridiniomethyl)-7ß-[(2R,S)-2-(2-aminothiazol-4-yl)-2-methansulfonylaminoacetamido]-3-cephem-4-carbonsäure], which “ED50 Staphylococcus aureus 10 B” value [1] is on record?
A: 55 mg/kg

Q: And the “ED50 Escherichia coli 205” value (Escherichia coli 205; s.c.)?
A: 25 mg/kg

Q: `CC(=O)OCC1=C(C(=O)O)N2C(=O)[C@@H](NC(=O)C(NS(=O)(=O)CCNC=O)c3csc(N)n3)[C@H]2SC1` (stereo partly drawn) [Testverbindung 39] was tested. Which ED50 ([1]; sc) did it give?
A: 10 mg/kg

Q: And the ED50 (Escherichia coli 205; [2])?
A: 5.5 mg/kg

Q: And the ED50 (Escherichia coli 205; [3])?
A: 0.8 mg/kg

Q: What does the source list for `CS(=O)(=O)N[C@H](C(=O)N[C@@H]1C(=O)N2C(C(=O)O)=C(COC(N)=O)CS[C@H]12)c1csc(N)n1` [Testverbindung 40]?
A: ED50 ([1]; sc): 3 mg/kg; ED50 (Escherichia coli 205; [2]): 0.9 mg/kg; ED50 (Escherichia coli 205; [3]): 0.1 mg/kg

Q: `C=CC(=O)NCCS(=O)(=O)NC(C(=O)N[C@@H]1C(=O)N2C(C(=O)O)=C(CSc3nnnn3C)CS[C@H]12)c1csc(N)n1` (stereo partly drawn) [Testverbindung 41] was tested. Which ED50 ([1]; sc) did it give?
A: 24 mg/kg

Q: And the ED50 (Escherichia coli 205; [2])?
A: 10 mg/kg

Q: What about the ED50 (Escherichia coli 205; [3]) of the same compound?
A: 2 mg/kg

Q: Which results are given for `C=CC(=O)NCCS(=O)(=O)N[C@H](C(=O)N[C@@H]1C(=O)N2C(C(=O)O)=C(COC(N)=O)CS[C@H]12)c1csc(N)n1` [Testverbindung 42]?
A: ED50 ([1]; sc): 15 mg/kg; ED50 (Escherichia coli 205; [2]): 2.5 mg/kg; ED50 (Escherichia coli 205; [3]): 0.1 mg/kg

Q: Which results are given for `CC(=O)NCCS(=O)(=O)NC(C(=O)N[C@@H]1C(=O)N2C(C(=O)O)=C(CSc3nnnn3C)CS[C@H]12)c1csc(N)n1` (stereo partly drawn) [Testverbindung 43]?
A: ED50 ([1]; sc): 50 mg/kg; ED50 (Escherichia coli 205; [2]): 8 mg/kg; ED50 (Escherichia coli 205; [3]): 1 mg/kg

Q: Which results are given for `CS(=O)(=O)NC(C(=O)N[C@@H]1C(=O)N2C(C(=O)O)=C(CSc3nnnn3CS(=O)(=O)O)CS[C@H]12)c1csc(N)n1` (stereo partly drawn) [Testverbindung 44]?
A: ED50 ([1]; sc): 85 mg/kg; ED50 (Escherichia coli 205; [3]): < 1 mg/kg

Q: Which ED50 ([1]; po) does the source give for `CS(=O)(=O)NCCS(=O)(=O)NC(C(=O)N[C@@H]1C(=O)N2C(C(=O)O)=C(COC(N)=O)CS[C@H]12)c1csc(N)n1` (stereo partly drawn) [Testverbindung 45] here?
A: 90 mg/kg

Q: What about the ED50 ([1]; sc) of the same compound?
A: 55 mg/kg

Q: Which ED50 ([1]; sc) does the source give for `NC(=O)OCC1=C(C(=O)O)N2C(=O)C(NC(=O)C(NS(=O)(=O)CCNS(=O)(=O)c3ccc(N)cc3)c3csc(N)n3)C2SC1` (stereo not drawn) [Testverbindung 46] here?
A: 9 mg/kg

Q: And the ED50 (Escherichia coli 205; [3])?
A: < 1 mg/kg

Q: With `CC(=O)OCC1=C(C(=O)O)N2C(=O)[C@@H](NC(=O)C(NS(=O)(=O)CCNS(=O)(=O)c3ccc(N)cc3)c3csc(N)n3)[C@H]2SC1` (stereo partly drawn) [Testverbindung 47] as the compound, how does the ED50 ([1]; po) read?
A: 100 mg/kg

Q: What about the ED50 ([1]; sc) of the same compound?
A: 5 mg/kg

Q: What about the ED50 (Escherichia coli 205; [2]) of the same compound?
A: > 30 mg/kg

Q: What about the ED50 (Escherichia coli 205; [3]) of the same compound?
A: 2.8 mg/kg
